Assay results as given in article PMC12052742, “Engineering a newly identified alcohol dehydrogenase from Sphingobium Sp. for efficient utilization of nicotinamide cofactors biomimetics” (Bioresources and Bioprocessing, 2025).

Experiments:
SpADH2 [1] = experiment: Cofactor spectrum of syringyl alcohol oxidation (HPLC specific activity), WT; type: biochemical, Sphingobium sp. SYK-6; conditions: 1a 5 mM, cofactor 7.5 mM, pH 7.5, 30℃
Method: Fig. 2 Cofactor spectrum of syringyl alcohol oxidation catalyzed by SpADH2. The darkness of the background color for each cofactor stands for the activity of SpADH2 utilizing various cofactors. (a) NAD(P) ^+ and NMN^+ are shown in purple background. (b) tsNCBs are shown in cyan background. The evaluation of cofactor spectrum of SpADH2 was carried out under following conditions: 50 mM PBS buffer (pH 7.5) and 30℃, with 1a (5 mM) as substrate and different cofactors (7.5 mM) as cofactor. For NAD(P)^+ and NMN^+, 0.05 µg SpADH2 was added, and for tsNCBs, 5 µg SpADH2 was added. The results were analyzed by HPLC after 1 h reaction
(§1) Specific activity of SpADH2 in cofactor spectrum study was determined by HPLC analysis. PBS (pH 7.5) buffer was pre-heated at 30°C for 15 min. For NAD(P)^+ and NMN^+, 0.05 µg SpADH2 was added to PBS buffer (100 µL). For tsNCBs, 5 µg SpADH2 was added. A final concentration of 7.5 mM cofactor was added to the reaction mixture. Finally, a final concentration of 5 mM substrate was added to start the reaction. The reactions were conducted at 30°C.
(§2) One unit of enzyme activity is defined as the amount of enzyme required to form 1 µmol 1b per minute at pH 7.5 and 30°C. Same reaction without cofactor was used as a blank control.

[2] = system: NC(=O)c1ccc[n+]([C@@H]2O[C@H](COP(=O)([O-])OP(=O)(O)OC[C@H]3O[C@@H](n4cnc5c(N)ncnc54)[C@H](O)[C@@H]3O)[C@@H](O)[C@H]2O)c1; experiment: Cofactor kinetic assay, WT; type: biochemical, Sphingobium sp. SYK-6; conditions: other: WT, cofactor (= label) varied, 1a fixed at 5 mM, pH 7.5, 30°C
Method: (§3) Specific activity of SpADH2 in substrate spectrum study was measured spectrophotometrically. PBS (pH 7.5) buffer was pre-heated at 30°C for 15 min. For NAD^+, 0.05 µg SpADH2 was added to the PBS buffer (100 µL), and a final concentration of 2 mM NAD^+ was added. For tsNCBs cofactor p-BANA^+, 5 µg SpADH2 and a final concentration of 7.5 mM p-BANA^+ was added. The mixture was carried out in a 96-well microplate, and a final concentration of 5 mM substrate was added to start the reaction. The microplate was incubated in 30°C for 1 h. Florescent probes (2-[2-(1,4-dihydro-1-methyl-3-quinolinyl)ethenyl]-1,3,3-trimethyl-3H-indolium) in a final concentration of 0.2 mM (100 µL) was added (Scheme S1), and the microplate was placed in a microplate reader immediately for measurement under 537 nm (Fomin et al. [2016]).
(§4) Kinetic analysis of SpADH2 and its variants were carried out following Michaelis-Menten equation or Michaelis-Menten excess substrate inhibition equation. For of the substrate kinetic assays, concentrations of cofactors were fixed at 5 mM for NAD^+ and 7.5 mM for p-BANA^+. For cofactor kinetic assays, the concentration of 1a was fixed at 5 mM.
(§5) Specific activity was determined spectrophotometrically as above except that gradient 1a (0−20 mM) or cofactor (0−35 mM) concentrations were applied.
(§6) Cofactor specificity ratio (CSR) represents the ratio of catalytic efficiency of p-BANA^+ to NAD^+ for each enzyme, and relative specificity (RS) stands for the CSR ratio of variants to WT (King et al. [2020]).

SpADH2 variant A290I [3] = experiment: Cofactor spectrum (HPLC specific activity), variant A290I; type: biochemical, Sphingobium sp. SYK-6; conditions: 1a 5 mM, cofactor 7.5 mM, pH 7.5, 30℃, 5 µg enzyme
Method: (§7) Fig. 8 Cofactor spectrums of SpADH2 and its variants. The darkness of color for each cofactor stands for the activity. For each cofactor cube, top left: WT, top right: H43L, bottom left: A290I, bottom right: H43L/A290I. (a) Natural cofactors and NMN^+ are shown in purple. (b) tsNCBs are shown in cyan. The evaluation of cofactor spectrum was carried out under following conditions: 50 mM PBS buffer (pH 7.5) and 30℃, with 1a (5 mM) as substrate and different cofactors (7.5 mM) as cofactor. For NAD(P)^+ and NMN^+, 0.05 µg enzyme was added, and for tsNCBs, 5 µg enzyme was added. The results were analyzed by HPLC after 1 h reaction
as §1, §2

SpADH2 [4] = experiment: Preliminary evaluation of NCB usage in oxidation of syringyl alcohol (HPLC); type: biochemical, Sphingobium sp. SYK-6; conditions: preliminary assay: 1a 1 mM, NCB 10 mM, pH 7.0, 30℃, 1 h
Method: Sphingobium sp. SYK-6 belongs to genus Sphingomonas, and a search in UniProtKB identified 19 ADHs from this strain, including 5 PQQ-dependent and the remaining NAD^+/NADP^+-dependent enzymes. Two sequences annotated as aryl-alcohol dehydrogenases (SLG_34580 and SLG_24930) (Table. S1) were selected for heterologous expression (Fig. S1) and named SpADH1 and SpADH2, respectively. Their ability to utilize NCBs was assessed by oxidation of syringyl alcohol (1a) to produce syringaldehyde (1b) (Fig. 1a).
Fig. 1 (a) Reaction scheme of SpADH2-catalyzed oxidation of syringyl alcohol. (b) Specific activity of SpADH2 toward four NCBs. The evaluation of NCBs usage by SpADH2 was carried out under following conditions: 50 mM PBS buffer (pH 7.0) and 30℃, with 1a (1 mM) as substrate and 4 typical NCBs (10 mM) as cofactor. A total of 0.1 mg/mL enzyme was added to a 200 µL reaction mixture, and was analyzed by HPLC after 1 h reaction
Reaction samples were analyzed using Agilent 1260 Infinity II LC system under reversed phase condition. Column: Agilent C18 column. Analytical conditions for 1a and 1b: mobile phase: 50% water: 50% acetonitrile. The retention time for standard product 1b was 3.27 min, under flow rate of 1 mL·min^− 1and temperature of 30°C (Fig. S4).

[5] = system: SpADH2 variants (H43L, A290I, H43L/A290I); experiment: Cofactor spectrum (HPLC specific activity), all variants together; type: biochemical, Sphingobium sp. SYK-6; conditions: 1a 5 mM, cofactor 7.5 mM, pH 7.5, 30℃
Method: as §7, §1, §2

SpADH2 variant A290I [6] = experiment: Cofactor kinetic assay, A290I; type: biochemical, Sphingobium sp. SYK-6
Method: as §3, §4, §5, §6

SpADH2 variant H43L [7] = experiment: Substrate kinetic assay, H43L; type: biochemical, Sphingobium sp. SYK-6; conditions: 1a varied, cofactor (= label) fixed: 5 mM NAD^+ or 7.5 mM p-BANA^+
Method: as §3, §4, §5, §6

SpADH2 variant H43L [8] = experiment: Cofactor kinetic assay, H43L; type: biochemical, Sphingobium sp. SYK-6; conditions: cofactor (= label) varied, 1a fixed at 5 mM
Method: as §3, §4, §5, §6

SpADH2 WT [9] = target: T1, SpADH2 WT (Sphingobium sp. SYK-6, UniProt G2IIZ8); experiment: Substrate kinetic assay, WT; type: biochemical; conditions: 1a varied, cofactor (= label) fixed: 5 mM NAD^+ or 7.5 mM p-BANA^+
T1 sequence (G2IIZ8 1-372): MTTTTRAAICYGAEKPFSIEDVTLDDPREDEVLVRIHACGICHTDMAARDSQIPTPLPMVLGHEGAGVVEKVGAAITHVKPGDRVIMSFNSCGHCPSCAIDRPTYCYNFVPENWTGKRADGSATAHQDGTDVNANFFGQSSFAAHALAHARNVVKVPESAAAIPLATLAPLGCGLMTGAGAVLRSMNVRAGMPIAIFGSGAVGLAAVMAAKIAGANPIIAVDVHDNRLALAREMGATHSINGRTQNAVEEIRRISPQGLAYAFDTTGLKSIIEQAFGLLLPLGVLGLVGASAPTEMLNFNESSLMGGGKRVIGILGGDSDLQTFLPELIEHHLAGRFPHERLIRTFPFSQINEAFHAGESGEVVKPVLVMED
Method: as §3, §4, §5, §6

SpADH2 variant A290I [10] = experiment: Substrate kinetic assay, A290I; type: biochemical, Sphingobium sp. SYK-6
Method: as §3, §4, §5, §6

SpADH2 WT [11] = target: T1, SpADH2 WT; experiment: Cofactor kinetic assay, WT; type: biochemical; conditions: cofactor (= label) varied, 1a fixed at 5 mM
Method: as §3, §4, §5, §6

[12] = system: SpADH2 variant H43L/A290I; experiment: Substrate kinetic assay, H43L/A290I; type: biochemical, Sphingobium sp. SYK-6
Method: as §3, §4, §5, §6

[13] = system: SpADH2 variant H43L/A290I; experiment: Cofactor kinetic assay, H43L/A290I; type: biochemical, Sphingobium sp. SYK-6; conditions: cofactor (= label) varied, 1a fixed at 5 mM
Method: as §3, §4, §5, §6

SpADH2 [14] = experiment: Substrate spectrum (spectrophotometric specific activity, fluorescent probe); type: biochemical, Sphingobium sp. SYK-6; conditions: substrate 5 mM, 1 h
Method: Fig. 3 Substrate spectrum of SpADH2 utilizing (a) NAD^+ and (b) p-BANA^+. The darkness of the background color for each substrate stands for the activity of SpADH2 with NAD^+ (purple) or p-BANA^+ (cyan) as cofactor. The evaluation of substrate spectrum of SpADH2 was carried out under following conditions: 50 mM PBS buffer (pH 7.5) and 30℃, with 1a (5 mM) as substrate. For NAD^+(2 mM), 0.05 µg SpADH2 was added, and for p-BANA^+(7.5 mM), 5 µg SpADH2 was added. After 1 h, reactions were visualized by 0.2 mM florescent probes (2-[2-(1,4-dihydro-1-methyl-3-quinolinyl)ethenyl]-1,3,3-trimethyl-3H-indolium)
as §3
One unit of enzyme activity is defined as the amount of enzyme required to form 1 µmol of reduced florescent probes per minute at pH 7.5 and 30°C. Each reaction was repeated in triplet. Same reaction without substrate was used as a blank control. The molar absorbance coefficient (ε) was detected as […] with NADH as the reduced cofactor and 60,801 µM^− 1·cm^− 1 with p-BANAH as the reduced cofactor.

[15] = 1a varied, cofactor (= label) fixed: 5 mM NAD^+ or 7.5 mM p-BANA^+
[16] = substrate kinetics, cofactor = label

**Q.** For `Cc1ccccc1C[n+]1cccc(C(N)=O)c1` [o-BMNA^+, ortho-3-carbamoyl-1-(2-methylbenzyl)pyridin-1-ium], which “utilization of the tsNCB by SpADH2 (in words)” value (SpADH2 [1]; 5 µg SpADH2, 1 h) is on record?
**A.** The value was “No detectable activity”.

**Q.** Which Km [2] does the source give for SpADH2 WT (Sphingobium sp. SYK-6) here?
**A.** The Km was 28 ± 3 µM.

**Q.** Which “utilization of the tsNCB (in words)” value (SpADH2 variant A290I [3]) does the source give for `NC(=O)c1ccc[n+](Cc2ccccc2[N+](=O)[O-])c1` [o-BNNA^+] here?
**A.** The value was “capable of utilizing”.

**Q.** And the “activity of SpADH2 with the tsNCB as cofactor” value (SpADH2 [1]; 5 µg SpADH2, 1 h)?
**A.** Its value is 1.92 U/g.

**Q.** For `NC(=O)c1ccc[n+](Cc2ccccc2)c1` [BNA^+, 1-benzyl-3-carbamoylpyridin-1-ium], which “utilization of the NCB by SpADH2 (in words)” value (SpADH2 [4]) is on record?
**A.** Its value is “Appreciable activity”.

**Q.** What does the source list for `NC(=O)c1ccc[n+]([C@@H]2O[C@H](COP(=O)([O-])OP(=O)(O)OC[C@H]3O[C@@H](n4cnc5c(N)ncnc54)[C@H](O)[C@@H]3O)[C@@H](O)[C@H]2O)c1` [NAD^+, reference compound]?
**A.** catalytic activity of all variants with the cofactor (in words) [5]: relatively lower catalytic activity; kcat (SpADH2 variant A290I [6]; cofactor (= label) varied, 1a fixed at 5 mM): 28.3 ± 0.6 min^− 1; Km (SpADH2 variant A290I [6]; cofactor (= label) varied, 1a fixed at 5 mM, pH 7.5, 30°C): 9 ± 1 µM; fold higher catalytic efficiency (kcat/Km) than WT (SpADH2 variant A290I [6]; cofactor kinetics, cofactor = label): 1.5 fold; kcat (SpADH2 variant H43L [7]): 102 ± 2.3 min^− 1; kcat (SpADH2 variant H43L [8]): 57.8 ± 1.2 min^− 1; Km (SpADH2 variant H43L [8]; pH 7.5, 30°C): 99 ± 8 µM; kcat (SpADH2 WT [9]): 134 ± 2.9 min^− 1; kcat (SpADH2 variant A290I [10]; [15]): 41.4 ± 1.4 min^− 1; substrate inhibition (in words) (SpADH2 variant A290I [10]; [16]): no substrate inhibition was observed; kcat (SpADH2 WT [11]): 58.7 ± 1.5 min^− 1; kcat [12, 15]: 18.9 ± 0.2 min^− 1; fold improvement in substrate inhibition (Ki) vs WT [12, 16]: up to 9 fold; kcat [13]: 12.6 ± 0.2 min^− 1; Km ([13]; pH 7.5, 30°C): 365 ± 25 µM; specific activity of SpADH2 with the cofactor (SpADH2 [1]; 0.05 µg SpADH2, 1 h): 4.40 U/mg

**Q.** How did the “specific activity of SpADH2 toward the substrate” value (SpADH2 [14]; cofactor NAD^+ 2 mM, 0.05 µg SpADH2, pH 7.5, 30℃) turn out when `OCc1ccccc1` [benzyl alcohol] was run?
**A.** The value was 4.71 U/mg.

**Q.** And the “substrate preference of SpADH2 (in words)” value (SpADH2 [14]; cofactor p-BANA^+ 7.5 mM, 5 µg SpADH2, pH 7.5, 30℃)?
**A.** The value was “No significant preference”.

**Q.** Which “utilization of the tsNCB (in words)” value (SpADH2 variant A290I [3]) does the source give for `NC(=O)c1ccc[n+](Cc2ccc([N+](=O)[O-])cc2)c1` [p-BNNA^+] here?
**A.** The value was “capable of utilizing”.

**Q.** What about the “activity of SpADH2 with the tsNCB as cofactor” value (SpADH2 [1]; 5 µg SpADH2, 1 h) of the same compound?
**A.** Its value is 2.25 U/g.
